# Patent US9512139B2, “Conformationally constrained, fully synthetic macrocyclic compounds” (POLYPHOR AG, priority 2009, dated 2016)
# Target: T1, Prostaglandin F (FP) Receptor (Homo sapiens, UniProt P43088)
# T1 construct: host or cells: Ca2+ optimized hematopoietic cell lines (rat)
# Assay: Ca2+ assay (FLIPR) for the GPCR prostaglandin F (FP) receptor, agonist and antagonist mode
# Format: cell-based
# Method: Biological and Pharmacological Methods 1. Ca^2+ Assays for the GPCRs Motilin Receptor, Prostaglandin F (FP) Receptor, 5-hydroxytryptamine 2B (5-HT2B) Receptor, and Purinoreceptor P2Y1
# Assays were performed using on a FLIPR^TETRA fluorometric imaging plate reader (Molecular Devices) with ScreenWorks Version 2 (Molecular Devices) as device operating and data analysis software.
# Dose dependent agonist and antagonist activities were determined. Percentage activation and percentage inhibition values were determined.
# Percentage activation was determined upon initial addition of the sample compounds followed by 10 minutes incubation at 25° C. Following compound incubation, reference agonists were added at EC80 to determine percentage inhibition.
# Reference agonists were purchased from reputable commercial vendors and prepared according to each ligand's specifications. All handling of ligands were done to ensure proper control throughout the experiments.
# Example compounds were weighed on a Microbalance (Mettler MX5) and dissolved in 100% DMSO to a final concentration of 2.5 mM and subsequently diluted into the assay buffer.
# The Assay buffer was a supplemented HBSS (Hank's Balanced Salt Solution). HBSS was supplemented with 20 mM HEPES (4-(2-hydroxyethyl)-piperazin-1-ethansulfonic acid) and 2.5 mM Probenecid (Sigma P8761).
# GPCR assays were performed using Ca^2+ optimized hematopoietic cell lines (rat) with cultures never exceeding 90% confluency. Cells were harvested and seeded (from cultures at less than 90% confluency) at 50000 cells/well for a 96-well plate (12500 cells/well for 384). After seeding, the assay plates were incubated for forty-five (45) minutes at room temperature. After room temperature incubation, the assay plates were incubated at 37° C. 5% CO2 for 24 hours prior to assaying.
# All GPCR assays were performed using Fluo-8 Ca^2+ dye. Ca^2+ dye was prepared at 1× dye concentration in GPCR assay buffer. After 24 hours of incubation, cells were washed with GPCR assay buffer, and then Ca^2+-dye (100 μL/well) was added.
# The plates were incubated for 90 minutes at 30° C. 5% CO2 prior to FLIPR assay.
# Compound plates were prepared to add 50 μL/well during the agonist assay mode. During the FLIPR assay, 50 μL/well from the compound plate was diluted 3-fold into the existing 100 μL/well from the dye loading step. Therefore all compounds were prepared as 3× the final concentration desired in the assay.
# After completion of the first single addition assay run, assay plate was removed from the FLIPR Tetra and placed at 25° C. for seven (7) minutes before antagonist assay.
# Using the EC80 values determined during the agonist assay, all pre-incubated sample compound and reference antagonist (if applicable) wells were stimulated at the EC80 of the reference agonist. As reference ligands for the first three assays their obvious natural ligands motilin, prostaglandin F2α, and serotonin (5-HT, 5-Hydroxytryptamine) were used; and for the P2Y1 assay 2MeSATP (2-methyl-thio-adeno-sine 5′-triphosphate, i.e. (2R,3S,4R)-5-(6-amino-2-methylsulfanyl-purin-9-yl)-3,4-dihydroxy-tetrahydrofuran-2-yl]methyl (hydroxy-phosphonooxy-phosphoryl)hydrogen phosphate) was applied.
# After the addition of the reference agonist fluorescence was monitored for 180 sec using FLIPR Tetra.
# Data Analysis and Results:
# From the FLIPR data, with negative control correction enabled, the maximum statistic for each well was exported and percentage activation relative to Emax control was calculated.
# T1 sequence (P43088 whole entry): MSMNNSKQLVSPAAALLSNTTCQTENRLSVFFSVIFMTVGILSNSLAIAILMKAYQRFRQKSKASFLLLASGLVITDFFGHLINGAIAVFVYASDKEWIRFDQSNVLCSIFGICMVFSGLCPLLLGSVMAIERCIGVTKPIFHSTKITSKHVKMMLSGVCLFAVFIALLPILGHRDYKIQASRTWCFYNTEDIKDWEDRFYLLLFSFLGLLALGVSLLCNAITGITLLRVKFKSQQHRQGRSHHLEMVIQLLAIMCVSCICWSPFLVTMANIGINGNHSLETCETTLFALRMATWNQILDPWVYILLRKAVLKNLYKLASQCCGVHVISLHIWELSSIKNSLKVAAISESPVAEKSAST
structure (smiles),measurement,value
"CN1CCC[C@H](NC(=O)Cc2ccc(-c3ccccc3)cc2)C(=O)N2C[C@@H](NC(=O)Cc3ccc(-c4ccccc4)cc3)C[C@H]2COc2cccc(c2)C1=O [Ex. 551, 2-[1,1′-biphenyl]-4-yl-N-[(4S,6S,10S)-10-[(2-[1,1′-biphenyl]-4-ylacetyl)amino]-14-methyl-9,15-dioxo-2-oxa-8,14-diazatricyclo[14.3.1.0^4,8]icosa-1(20),16,18-trien-6-yl]acetamide]",inhibition at 10 µM,72%
"Cc1cccc(NC(=O)N[C@H]2CCCN(C)C(=O)c3cccc(c3)OC[C@@H]3C[C@H](NC(=O)Cc4ccc5ccccc5c4)CN3C2=O)c1 [Ex. 506, N-[(4S,6S,10S)-14-methyl-9,15-dioxo-10-[(3-toluidinocarbonyl)amino]-2-oxa-8,14-diazatricyclo[14.3.1.0^4,8]icosa-1(20),16,18-trien-6-yl]-2-(2-naphthyl)acetamide]",IC50,2200 nM
same,inhibition at 10 µM,55%
"CN1CCC[C@H](NC(=O)Cc2ccc3ccccc3c2)C(=O)N2C[C@@H](NC(=O)Nc3cccc(N(C)C)c3)C[C@H]2COc2cccc(c2)C1=O [Ex. 508, N-[(4S,6S,10S)-6-({[3-(dimethylamino)anilino]carbonyl}amino)-14-methyl-9,15-dioxo-2-oxa-8,14-diazatricyclo[14.3.1.0^4,8]icosa-1(20),16,18-trien-10-yl]-2-(2-naphthyl)acetamide]",IC50,430 nM
same,inhibition at 10 µM,93%
"CCCCCCCCCC(=O)N[C@H]1CCCN(C)C(=O)c2cccc(c2)OC[C@@H]2C[C@H](NC(=O)CC(c3ccccc3)c3ccccc3)CN2C1=O [Ex. 550, N-[(4S,6S,10S)-6-[(3,3-diphenylpropanoyl)amino]-14-methyl-9,15-dioxo-2-oxa-8,14-diazatricyclo[14.3.1.0^4,8]icosa-1(20),16,18-trien-10-yl]decanamide]",inhibition at 10 µM,73%
"CN1CCC[C@H](NC(=O)CCCCOc2ccccc2)C(=O)N2C[C@@H](NC(=O)Cc3ccc4ccccc4c3)C[C@H]2COc2cccc(c2)C1=O [Ex. 517, N-[(4S,6S,10S)-14-methyl-6-{[2-(2-naphthyl)acetyl]amino}-9,15-dioxo-2-oxa-8,14-diazatricyclo[14.3.1.0^4,8]icosa-1(20),16,18-trien-10-yl]-5-phenoxypentanamide]",IC50,650 nM
same,inhibition at 10 µM,98%
"CN1CCC[C@H](NC(=O)CC(C)(C)C)C(=O)N2C[C@@H](NC(=O)Nc3cccc(N(C)C)c3)C[C@H]2COc2cccc(c2)C1=O [Ex. 552, N-[(4S,6S,10S)-6-({[3-(dimethylamino)anilino]carbonyl}amino)-14-methyl-9,15-dioxo-2-oxa-8,14-diazatricyclo[14.3.1.0^4,8]icosa-1(20),16,18-trien-10-yl]-3,3-dimethylbutanamide]",inhibition at 10 µM,71%
"CCCCCCCCCC(=O)N[C@H]1CCCN(C)C(=O)c2cccc(c2)OC[C@@H]2C[C@H](NC(=O)c3cccc(N4CCOCC4)c3)CN2C1=O [Ex. 510, N-[(4S,6S,10S)-14-methyl-6-[(3-morpholinobenzoyl)amino]-9,15-dioxo-2-oxa-8,14-diazatricyclo[14.3.1.0^4,8]icosa-1(20),16,18-trien-10-yl]decanamide]",IC50,1500 nM
same,inhibition at 10 µM,42%
"CCCCCCCCCC(=O)N[C@H]1CCCN(C)C(=O)c2cccc(c2)OC[C@@H]2C[C@H](NC(=O)Cc3cccc4ccccc34)CN2C1=O [Ex. 519, N-[(4S,6S,10S)-14-methyl-6-{[2-(1-naphthyl)acetyl]amino}-9,15-dioxo-2-oxa-8,14-diazatricyclo[14.3.1.0^4,8]icosa-1(20),16,18-trien-10-yl]decanamide]",IC50,3000 nM
"CN1CCC[C@H](NC(=O)Cc2ccc3ccccc3c2)C(=O)N2C[C@@H](NC(=O)Cc3ccc4cccnc4c3)C[C@H]2COc2cccc(c2)C1=O [Ex. 540, N-[(4S,6S,10S)-14-methyl-9,15-dioxo-6-{[2-(7-quinolinyl)acetyl]amino}-2-oxa-8,14-diazatricyclo[14.3.1.0^4,8]icosa-1(20),16,18-trien-10-yl]-2-(2-naphthyl)acetamide]",inhibition at 10 µM,43%
"CN1CCC[C@H](NC(=O)CCCCCc2ccccc2)C(=O)N2C[C@@H](NC(=O)CCCCCOCc3ccccc3)C[C@H]2COc2cccc(c2)C1=O [Ex. 524, 6-(benzyloxy)-N-[(4S,6S,10S)-14-methyl-9,15-dioxo-10-[(6-phenylhexanoyl)amino]-2-oxa-8,14-diazatricyclo[14.3.1.0^4,8]icosa-1(20),16,18-trien-6-yl]hexanamide]",IC50,1700 nM
same,inhibition at 10 µM,85%
"CCCCCC(=O)N[C@H]1C[C@H]2COc3cccc(c3)C(=O)N(C)CCC[C@H](NC(=O)Cc3cccc4ccccc34)C(=O)N2C1 [Ex. 544, N-[(4S,6S,10S)-14-methyl-10-{[2-(1-naphthyl)acetyl]amino}-9,15-dioxo-2-oxa-8,14-diazatricyclo[14.3.1.0^4,8]icosa-1(20),16,18-trien-6-yl]hexanamide]",inhibition at 10 µM,81%
"CCCCCCCCCC(=O)N[C@H]1CCCN(C)C(=O)c2cccc(c2)OC[C@@H]2C[C@H](NC(=O)Cc3cccc(Oc4ccccc4)c3)CN2C1=O [Ex. 515, N-[(4S,6S,10S)-14-methyl-9,15-dioxo-6-{[2-(3-phenoxyphenyl)acetyl]amino}-2-oxa-8,14-diazatricyclo[14.3.1.0^4,8]icosa-1(20),16,18-trien-10-yl]decanamide]",IC50,5100 nM
same,inhibition at 10 µM,32%
"CN1CCC[C@H](NC(=O)Cc2cccc3ccccc23)C(=O)N2C[C@@H](NC(=O)Cc3ccc(-c4ccccc4)cc3)C[C@H]2COc2cccc(c2)C1=O [Ex. 545, 2-[1,1′-biphenyl]-4-yl-N-[(4S,6S,10S)-14-methyl-10-{[2-(1-naphthyl)acetyl]amino}-9,15-dioxo-2-oxa-8,14-diazatricyclo[14.3.1.0^4,8]icosa-1(20),16,18-trien-6-yl]acetamide]",inhibition at 10 µM,80%
"COc1cccc(NC(=O)N[C@H]2C[C@H]3COc4cccc(c4)C(=O)N(C)CCC[C@H](NC(=O)Cc4ccc5ccccc5c4)C(=O)N3C2)c1 [Ex. 513, N-[(4S,6S,10S)-6-{[(3-methoxyanilino)carbonyl]amino}-14-methyl-9,15-dioxo-2-oxa-8,14-diazatricyclo[14.3.1.0^4,8]icosa-1(20),16,18-trien-10-yl]-2-(2-naphthyl)acetamide]",IC50,650 nM
same,inhibition at 10 µM,95%
"CN1CCC[C@H](NC(=O)CCCCCc2ccccc2)C(=O)N2C[C@@H](NC(=O)Cc3ccc4ccccc4c3)C[C@H]2COc2cccc(c2)C1=O [Ex. 516, N-[(4S,6S,10S)-14-methyl-6-([2-(2-naphthyl)acetyl]amino}-9,15-dioxo-2-oxa-8,14-diazatricyclo[14.3.1.0^4,8]icosa-1(20),16,18-trien-10-yl]-6-phenylhexanamide]",IC50,590 nM
same,inhibition at 10 µM,97%
"CCCCCCCCCC(=O)N[C@H]1CCCN(C)C(=O)c2cccc(c2)OC[C@@H]2C[C@H](NC(=O)CCc3ccccc3)CN2C1=O [Ex. 509, N-[(4S,6S,10S)-14-methyl-9,15-dioxo-6-[(3-phenylpropanoyl)amino]-2-oxa-8,14-diazatricyclo[14.3.1.0^4,8]icosa-1(20),16,18-trien-10-yl]decanamide]",IC50,2100 nM
same,inhibition at 10 µM,54%
"CN1CCC[C@H](NC(=O)CC(c2ccccc2)c2ccccc2)C(=O)N2C[C@@H](NC(=O)Cc3ccc4ccccc4c3)C[C@H]2COc2cccc(c2)C1=O [Ex. 523, N-[(4S,6S,10S)-14-methyl-6-{[2-(2-naphthyl)acetyl]amino}-9,15-dioxo-2-oxa-8,14-diazatricyclo[14.3.1.0^4,8]icosa-1(20),16,18-trien-10-yl]-3,3-diphenylpropanamide]",IC50,860 nM
same,inhibition at 10 µM,92%
"CCCCCCCCCC(=O)N[C@H]1CCCN(C)C(=O)c2cccc(c2)OC[C@@H]2C[C@H](NC(=O)C(c3ccccc3)c3ccccc3)CN2C1=O [Ex. 548, N-[(4S,6S,10S)-6-[(2,2-diphenylacetyl)amino]-14-methyl-9,15-dioxo-2-oxa-8,14-diazatricyclo[14.3.1.0^4,8]icosa-1(20),16,18-trien-10-yl]decanamide]",inhibition at 10 µM,69%
